According to EP2058315A1, “1H-Furo[3,2-C]Pyrazoles active as aurora kinase inhibitors” (Nerviano Medical Sciences S.r.l., priority 2007, dated 2009):
Where two headings read alike, the source gives them in different places.

How the values were obtained:
[1] = biological target: T1, Aurora-2 (Homo sapiens, UniProt O14965); experiment: Inhibition assay of Aurora-2 activity (SPA technology); format: biochemical
T1 sequence (O14965 1-403): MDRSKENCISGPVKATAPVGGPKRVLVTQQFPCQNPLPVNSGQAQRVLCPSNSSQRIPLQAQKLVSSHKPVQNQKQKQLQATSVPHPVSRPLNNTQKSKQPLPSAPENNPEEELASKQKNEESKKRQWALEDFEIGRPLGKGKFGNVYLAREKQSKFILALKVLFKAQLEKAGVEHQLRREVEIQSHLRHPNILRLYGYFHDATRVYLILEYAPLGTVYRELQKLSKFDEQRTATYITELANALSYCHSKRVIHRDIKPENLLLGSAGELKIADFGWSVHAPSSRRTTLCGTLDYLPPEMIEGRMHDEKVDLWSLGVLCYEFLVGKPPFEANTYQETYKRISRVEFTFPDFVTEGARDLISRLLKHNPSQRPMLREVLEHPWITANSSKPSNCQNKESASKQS
Method: The inhibiting activity and the potency of selected compounds is determined through a method of assay based on the use of the SPA technology (Amersham Pharmacia Biotech).
The assay consists of the transfer of radioactivity labelled phosphate moiety by the kinase to a biotinylated substrate. The resulting 33P-labelled biotinylated product is allowed to bind to streptavidin-coated SPA beads (biotin capacity 130 pmol/mg), and light emitted was measured in a scintillation counter.
Kinase reaction: 8 µM biotinylated peptide (4 repeats of LRRWSLG, commercially available from Sigma, catalogue no. L-3523), 10 µM ATP (0.5 uCi P^33γ-ATP), 7.5 ng Aurora 2, inhibitor in a final volume of 30 µl buffer (HEPES 50 mM pH 7.0, MgCl2 10 mM, 1 mM DTT, 0.2 mg/mL BSA, 3 µM orthovanadate) were added to each well of a 96 U bottom well plate. After 60 minutes at room temperature incubation, the reaction was stopped and biotinylated peptide captured by adding 100 µl of bead suspension.
Stratification: 100 µl of CsCl 5 M were added to each well and stood for 4 hours before radioactivity was counted in the Top-Count instrument.
IC50 determination: inhibitors were tested at different concentrations ranging from 0.0015 to 10 µM. Experimental data were analyzed by the computer program GraphPad Prizm using the four parameter logistic equation: y = bottom+(top-bottom)/(1+10^((logIC50-x)*slope)) where x is the logarithm of the inhibitor concentration, y is the response; y starts at bottom and goes to top with a sigmoid shape. Ki calculation: Experimental method: Reaction was carried out in buffer (10 mM Tris, pH 7.5, 10 mM MgCl2, 0.2 mg/mL BSA, 7.5 mM DTT) containing 3.7 nM enzyme, histone and ATP (constant ratio of cold/labeled ATP 1/3000). The reaction was stopped with EDTA and the substrate captured on phosphomembrane (Multiscreen 96 well plates from Millipore). After extensive washing, the multiscreen plates were read on a top counter. Control (time zero) for each ATP and histone concentrations was measured.

[2] = test system: human colon cancer cell line HCT-116; experiment: In vitro cell proliferation assay; format: cell-based; details: HCT-116, 72 hours of treatment, cell count, read-out: Cell Antiproliferation (HCT-116) IC50
Method: The human colon cancer cell line HCT-116 was seeded at 5000 cells/cm^2 in 24 wells plate (Costar) using F12 medium (Gibco) supplemented with 10% FCS (EuroClone, Italy) 2 mM L-glutamine and 1% penicillin/streptomycin and maintained at 37°C, 5% CO2 and 96% relative humidity. The following day, plates were treated in duplicates with 5ul of an appropriate dilution of compounds starting from a 10 mM stock in DMSO. Two untreated control wells were included in each plate. After 72 hours of treatment, medium was withdrawn and cells detached from each well using 0.5 mL of 0.05% (w/v) Trypsin, 0,02% (w/v) EDTA (Gibco). Samples were diluted with 9.5 mL of Isoton (Coulter) and counted using a Multisizer 3 cell counter (Beckman Coulter). Data were evaluated as percent of the control wells: % of CTR = (Treated - Blank)/(Control - Blank).
IC50 values were calculated by LSW/Data Analysis using Microsoft Excel sigmoidal curve fitting. […] See, as an example, the following Table 1 reporting the experimental data of some representative compounds of the invention being tested as Aurora-2 kinase inhibitors (IC50 nM) and for their cell antiproliferative effect (IC50 nM), namely: • Compound (1) is 3-[(Thiophene-2-carbonyl)-amino]-1H-furo[3,2-c]pyrazole-5-carboxylic acid (1-methyl-1-phenyl-ethyl)-amide; • Compound (2) is 3-(4-Morpholin-4-ylmethyl-benzoylamino)-1H-furo[3,2-c]pyrazole-5-carboxylic acid[1-(2-fluoro-phenyl)-1-methyl-ethyl]-amide • Compound (3) is 3-[4-(4-Methyl-piperazin-1-yl)-benzoylamino]-1H-furo[3,2-c]pyrazole-5-carboxylic acid (1-phenyl-cyclopropyl)-amide Table 1

[3] = 10 µM ATP, 60 minutes at room temperature, SPA, read-out: Aurora-2 inhibition IC50
[4] = screened according to the methods of the pharmacology section, read-out: IC50values for Aur2 inhibition

SMILES	IC50 [1, 3] [nM]	IC50 [1, 4] [nM]	IC50 [2] [nM]	IC50 ([2]; Homo sapiens, HCT-116, 72 h) [nM]
CC(C)(NC(=O)c1cc2[nH]nc(NC(=O)c3ccc(CN4CCOCC4)cc3)c2o1)c1ccccc1F [Compound 2, 3-(4-Morpholin-4-ylmethyl-benzoylamino)-1H-furo[3,2-c]pyrazole-5-carboxylic acid[1-(2-fluoro-phenyl)-1-methyl-ethyl]-amide]	1	< 10	2	4 to 10
CN1CCN(c2ccc(C(=O)Nc3n[nH]c4cc(C(=O)NC5(c6ccccc6)CC5)oc34)cc2)CC1 [Compound 3, 3-[4-(4-Methyl-piperazin-1-yl)-benzoylamino]-1H-furo[3,2-c]pyrazole-5-carboxylic acid (1-phenyl-cyclopropyl)-amide]	4	< 10	4	4 to 10
CN1CCN(Cc2ccc(C(=O)Nc3n[nH]c4cc(C(=O)NC(C)(C)c5ccccc5F)oc34)cc2)CC1 [Compound 60, N-[1-(2-fluorophenyl)-1-methylethyl]-3-({4-[(4-methylpiperazin-1-yl)methyl]benzoyl}amino)-1H-furo[3,2-c]pyrazole-5-carboxamide]	–	< 10	–	–
CC(C)(NC(=O)c1cc2[nH]nc(NC(=O)c3ccc(OCCN4CCCC4)cc3)c2o1)c1ccccc1 [Compound 68, N-(1-methyl-1-phenylethyl)-3-{[4-(2-pyrrolidin-1-ylethoxy)benzoyl]amino}-1H-furo[3,2-c]pyrazole-5-carboxamide]	–	< 10	–	–
CN1CCC(Oc2ccc(C(=O)Nc3n[nH]c4cc(C(=O)NC(C)(C)c5ccccc5)oc34)cc2)CC1 [Compound 30, N-(1-methyl-1-phenylethyl)-3-({4-[(1-methylpiperidin-4-yl)oxy]benzoyl}amino)-1H-furo[3,2-c]pyrazole-5-carboxamide]	–	< 10	–	–
CN1CCN(c2ccc(C(=O)Nc3n[nH]c4cc(C(=O)NC5(c6ccccc6)CCCC5)oc34)cc2)CC1 [Compound 27, 3-{[4-(4-methylpiperazin-1-yl)benzoyl]amino}-N-(1-phenylcyclopentyl)-1H-furo[3,2-c]pyrazole-5-carboxamide]	–	< 10	–	–
CN1CCN(Cc2ccc(C(=O)Nc3n[nH]c4cc(C(=O)NC(C)(C)c5ccccc5)oc34)cc2)CC1 [Compound 31, N-(1-methyl-1-phenylethyl)-3-({4-[(4-methylpiperazin-1-yl)methyl]benzoyl}amino)-1H-furo[3,2-c]pyrazole-5-carboxamide]	–	< 10	–	–
CC(C)(NC(=O)c1cc2[nH]nc(NC(=O)c3ccc(CN4CCCCC4)cc3)c2o1)c1ccccc1F [Compound 74, N-[1-(2-fluorophenyl)-1-methylethyl]-3-{[4-(piperidin-1-ylmethyl)benzoyl]amino}-1H-furo[3,2-c]pyrazole-5-carboxamide]	–	< 10	–	–
CC(C)(NC(=O)c1cc2[nH]nc(NC(=O)c3ccc(N4CCOCC4)cc3)c2o1)c1ccccc1 [Compound 75, N-(1-methyl-1-phenylethyl)-3-[(4-morpholin-4-ylbenzoyl)amino]-1H-furo[3,2-c]pyrazole-5-carboxamide]	–	< 10	–	–

Second part, the compound after the results:

IC50 [1, 3] [nM]	IC50 [1, 4] [nM]	IC50 [2] [nM]	IC50 ([2]; Homo sapiens, HCT-116, 72 h) [nM]	SMILES
3	< 10	10	–	CC(C)(NC(=O)c1cc2[nH]nc(NC(=O)c3cccs3)c2o1)c1ccccc1 [Compound 1, 3-[(Thiophene-2-carbonyl)-amino]-1H-furo[3,2-c]pyrazole-5-carboxylic acid (1-methyl-1-phenyl-ethyl)-amide]
–	< 10	–	–	COc1ccc(C(=O)Nc2n[nH]c3cc(C(=O)NC(C)(C)c4ccccc4)oc23)cc1 [Compound 18, 3-[(4-methoxybenzoyl)amino]-N-(1-methyl-1-phenylethyl)-1H-furo[3,2-c]pyrazole-5-carboxamide]
–	< 10	–	–	CC(C)(NC(=O)c1cc2[nH]nc(NC(=O)c3cccs3)c2o1)c1ccccc1F [Compound 57, N-[1-(2-fluorophenyl)-1-methylethyl]-3-[(2-thienylcarbonyl)amino]-1H-furo[3,2-c]pyrazole-5-carboxamide]
–	< 10	–	–	Cc1ccc(C(=O)Nc2n[nH]c3cc(C(=O)NC(C)(C)c4ccccc4)oc23)o1 [Compound 51, 3-[(5-methyl-2-furoyl)amino]-N-(1-methyl-1-phenylethyl)-1H-furo[3,2-c]pyrazole-5-carboxamide]
–	< 10	–	–	CC(C)NCc1ccc(C(=O)Nc2n[nH]c3cc(C(=O)NC(C)(C)c4ccccc4)oc23)cc1 [Compound 70, 3-({4-[(isopropylamino)methyl]benzoyl}amino)-N-(1-methyl-1-phenylethyl)-1H-furo[3,2-c]pyrazole-5-carboxamide]
–	< 10	–	–	CC(C)(NC(=O)c1cc2[nH]nc(NC(=O)c3ccc(CN4CCCC4)cc3)c2o1)c1ccccc1 [Compound 34, N-(1-methyl-1-phenylethyl)-3-{[4-(pyrrolidin-1-ylmethyl)benzoyl]amino}-1H-furo[3,2-c]pyrazole-5-carboxamide]
